Entries after “also recorded” stand apart in the source; their conditions may differ.
Columns and labels:
Arr1 = Arr1 (Bos taurus, UniProt P08168); test: Tyrosine fluorescence quenching assay of Arr1; type: binding, bovine; details: intrinsic quenching assay, no Mg2+; Figure 6E-F, Table S1
bovine arrestin-1 = test: cwEPR of spin-labeled arrestin C-tail mutants; details: spin-labeled Arr1 mutants, room temperature, compared with apo-Arr1; Figure 3D

Sequence of Arr1 (P08168 whole entry): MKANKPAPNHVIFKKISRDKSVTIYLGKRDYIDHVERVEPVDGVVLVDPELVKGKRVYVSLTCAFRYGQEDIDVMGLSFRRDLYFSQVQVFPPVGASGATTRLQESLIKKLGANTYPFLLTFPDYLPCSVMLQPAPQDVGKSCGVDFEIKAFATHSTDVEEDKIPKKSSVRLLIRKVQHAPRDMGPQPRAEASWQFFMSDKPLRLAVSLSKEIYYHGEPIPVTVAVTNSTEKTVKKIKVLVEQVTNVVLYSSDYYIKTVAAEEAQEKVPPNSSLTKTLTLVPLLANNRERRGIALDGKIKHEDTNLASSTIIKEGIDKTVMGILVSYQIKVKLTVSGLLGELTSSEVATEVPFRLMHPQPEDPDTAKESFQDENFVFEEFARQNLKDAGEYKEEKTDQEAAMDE

O=P(O)(O)O[C@@H]1[C@H](O)[C@H](O)[C@@H](OP(=O)(O)O)[C@H](OP(=O)(O)O)[C@H]1O [InsP3, (1,4,5) myo-D-inositol triphosphate]
relative affinity for Arr1 (in words) (Arr1): somewhat lower affinity; also recorded: lower relative affinity
C-tail flexibility by cwEPR (sites T396 and A401) (bovine arrestin-1): slightly more flexibility than InsP6

Reference: paper PMC8818024 (Structure (London, England : 1993), 2021)
